From patent US20240424426A1, “SOLVENTS FOR SELECTIVE COMPLEXATION OF METAL CATIONS” (THE BOARD OF TRUSTEES OF THE UNIVERSITY OF ALABAMA, priority 2023, published 2024)

Experiments:
[1] = Liquid-liquid extraction of Li^+ from aqueous LiCl/NaCl solution, ion-selective electrode analysis; details: 3 mL neat compound mixed with 3 mL aqueous solution containing 100 ppm LiCl and 100 ppm NaCl; aqueous phase analyzed by ion-selective electrode
Protocol: (§1) 3 ml of the compound [F·Me·Me] was added neat to 3 mL of an aqueous solution containing 100 ppm LiCl and 100 ppm NaCl. After vigorous mixing of the organic and aqueous phases in a separatory funnel, the phases were separated, and the aqueous phase was analyzed using ion-selective electrodes for both Li^+ and Na^+.

[2] = Liquid-liquid extraction of Na^+ from aqueous LiCl/NaCl solution, ion-selective electrode analysis; details: 3 mL neat compound mixed with 3 mL aqueous solution containing 100 ppm LiCl and 100 ppm NaCl; aqueous phase analyzed by ion-selective electrode
Protocol: as §1

Structure (SMILES): COCCOCC(COCC(F)(F)F)OCCOC (centres unmarked) [[F·Me·Me]]
- Li^+ extracted by the compound [1]: 26.6%
- Na^+ extracted by the compound [2]: 7.3%
